Reference: patent US10041937B2, “Macrophage identification agent, and identification method, sorting method, evaluation method, screening method and kit using the macrophage identifier agent” (CANON KABUSHIKI KAISHA, priority 2013, dated 2018)

Assays:
[1] = test system: mixture of the M1 macrophages and the M2 macrophages; assay: Sorting of subtypes from a mixture of M1 and M2 macrophages with an FACS apparatus; assay type: cell-based, mouse; details: compound 1 μM
[2] = test system: M1 macrophages and M2 macrophages differentiated from THP-1 cells; assay: Identification of macrophage subtypes differentiated from human cell line THP-1; assay type: cell-based

CCOC(=O)CCN1C(=O)/C(=C\c2ccc3c(c2)C2CCCC2N3CC)SC1=S (stereo not shown) [compound (1)]
sorting of identified M1 and M2 macrophages ([1]; FACS apparatus): could be each sorted with an FACS apparatus | subtype more strongly stained ([1]; mixed M1 and M2 macrophages): stain the M1 macrophages more strongly than the M2 macrophages | Resolution ratio R ([2]; M1 vs M2 macrophages differentiated from THP-1 cells, channel listed per compound (Table 6)): 0.409 | Evaluation of macrophage subtype identification ([2]; M1 vs M2 macrophages differentiated from THP-1 cells, class based on resolution R (Table 6)): B (the compound is good in the subtype identification (namely, the resolution R is 0.15 or more and less than 0.5)) | Peak position of M1 macrophage ([2]; THP-1-derived M1 macrophages, fluorescence intensity peak by flow cytometry in the channel listed per compound (Table 6)): 58.1 | Peak position of M2 macrophage ([2]; THP-1-derived M2 macrophages, fluorescence intensity peak by flow cytometry in the channel listed per compound (Table 6)): 33.4 | Selectivity ([2]; subtype strongly stained, THP-1-derived macrophages (Table 6)): M1
